{"source": "patent EP0187619A2", "about": "“1,3-Disubstituted tetrahydropyridines” (priority 1985, dated 1986)", "key": {"[1]": {"tested_on": "amnesiogene Wirkung eines Elektroschocks", "test": "Two-compartment test: protection against electroshock-induced amnesia", "assay_type": "in vivo, Maus", "details": "for antiamnesiogener Effekt: significance by Mann-Whitney U test", "description": "So vermindern sie an der Maus in Dosen ab etwa 0,1 mg/kg i.p. sowie p.o. die amnesiogene Wirkung eines Elektroschocks in mindestens gleichem Ausmass wie nach Verabfolgung einer nootrop wirksamen Dosis von Piracetam (100 mg/kg i.p.). Zum Nachweis der nootropen Wirkung kann beispielsweise der Two-Compartment-Test herangezogen werden.\nAls Literatur über pharmakologische Modelle dieser Art seien z.B. genannt: S.J. Sara und D. Lefevre, Paychopharmacologia 25, 32-40 (1972), Hypoxia-induced amnesia in one-trial learning and pharmacological protection by piracetam. Boggan, W.O., und Schlesinger, K., in Behavioral Biology 12, 127-134 (1974)."}, "[2]": {"test": "Step-down Passive Avoidance Test (Mondadori and Waser): memory improvement", "assay_type": "in vivo", "details": "for Gedächtnisverbesserung: significance by Mann-Whitney U test; for Dosis, um die gedächtnisverbessernde Wirkung von 0,1 mg/kg i.p. von 1-[2-(Indol-3-yl)ethyl]-1,2,5,6,-tetrahydro-pyridin-3-carbonsauremethylester zu erzielen / Dosis relativ zu 1-[2-(Indol-3-yl)ethyl]-1,2,5,6,-tetrahydro-pyridin-3-carbonsauremethylester für gleiche gedächtnisverbessernde Wirkung: i.p.; for Dosis relativ zu 1-[2-(Indol-3-yl)ethyl]-1,2,5,6,-tetrahydro-pyridin-3-carbonsauremethylester für gleiche gedächtnisverbessernde Wirkung: 10 mg/kg versus 0,1 mg/kg", "description": "Insbesondere zeigen die Verbindungen der Formel I eine starke gedächtnisverbessernde Wirkung im Step-down Passive Avoidance Test nach Mondadori und Waser, Psychopharmacology 63, 297-300 (1979). Die Substanzen sind wirksam bei intraperitonealer Gabe 30 Minuten vor dem Lernversuch (wirksame Dosen 0,1, 1, 10 mg/kg). Eine deutliche Wirkung war auch feststellbar bei peroraler Applikation 60 Minuten vor dem Lernversuch (wirksame Dosen 0,1, 1, 10 mg/kg) sowie bei intraperitonealer Applikation unmittelbar nach dem Lernversuch (wirksame Dosen 0,1, 1, 10 mg/kg). […] Daraus ergibt sich, dass, um die gedächtnisverbessernde Wirkung von 0,1 mg/kg i.p. von 1-[2-(Indol-3-yl)ethyl]-1,2,5,6,-tetrahydro-pyridin-3-carbonsauremethylester zu erzielen, 10 mg/kg i.p., d.h. die 100-fache Dosis eines Isomeren A, B und C benötigt werden. Die Signifikanzangaben beziehen sich, ebenso wie im vorhergehenden Absatz, auf den U-Test von Mann und Whitney."}}, "data": [{"compound": "COC(=O)C1=CCCN(CCc2c[nH]c3ccccc23)C1", "note": "[1-[2-(Indol-3-yl)ethyl]-1,2,5,6-tetrahydro-pyridin-3-carbonsäuremethylester]", "values": [{"measurement": "antiamnesiogener Effekt", "setting": "[1]; 0,1 mg/kg i.p.", "result": "hochsignifikanten (p<0,01) antiamnesiogenen Effekt"}, {"measurement": "antiamnesiogener Effekt", "setting": "[1]; 1,0 mg/kg i.p.", "result": "hochsignifikanten (p<0,01) antiamnesiogenen Effekt"}, {"measurement": "Gedächtnisverbesserung", "setting": "[2]; 0,1 mg/kg i.p.", "result": "signifikante (p<0,05)"}, {"measurement": "Gedächtnisverbesserung", "setting": "[2]; 10 mg/kg i.p.", "result": "hochsignifikante (p<0,01)"}, {"measurement": "Gedächtnisverbesserung", "setting": "[2]; 1,0 mg/kg i.p.", "result": "signifikante (p<0,05)"}]}, {"compound": "COC(=O)C1=CN(CCc2c[nH]c3ccccc23)CCC1", "note": "[Isomere A, 1-(2-(Indol-3-yl)-ethyl]-1,4,5,6-tetrahydro-pyridin-3-carbonsäuremethylester]", "values": [{"measurement": "antiamnesiogener Effekt", "setting": "[1]; 0,1 mg/kg i.p.", "result": "keinen signifikanten"}, {"measurement": "antiamnesiogener Effekt", "setting": "[1]; 10 mg/kg i.p.", "result": "keinen signifikanten"}, {"measurement": "antiamnesiogener Effekt", "setting": "[1]; 1,0 mg/kg i.p.", "result": "gewissen (nur einseitig signifikanten)"}, {"measurement": "Gedächtnisverbesserung", "setting": "[2]; 0,1 mg/kg i.p.", "result": "keinen"}, {"measurement": "Gedächtnisverbesserung", "setting": "[2]; 10 mg/kg i.p.", "result": "signifikanten (p<0,05) Effekt"}, {"measurement": "Gedächtnisverbesserung", "setting": "[2]; 1,0 mg/kg i.p.", "result": "keinen"}, {"measurement": "Dosis, um die gedächtnisverbessernde Wirkung von 0,1 mg/kg i.p. von 1-[2-(Indol-3-yl)ethyl]-1,2,5,6,-tetrahydro-pyridin-3-carbonsauremethylester zu erzielen", "setting": "[2]", "result": 10, "unit": "mg/kg"}, {"measurement": "Dosis relativ zu 1-[2-(Indol-3-yl)ethyl]-1,2,5,6,-tetrahydro-pyridin-3-carbonsauremethylester für gleiche gedächtnisverbessernde Wirkung", "setting": "[2]", "result": "100 -fache Dosis"}]}, {"compound": "CCOC(=O)C1=CCCN(Cc2c[nH]c3ccccc23)C1", "note": "[Isomere B, 1-(Indol-3-yl)methyl-l,2,5,6-tetrahydro-pyridin-3-carbonsäureethylester]", "values": [{"measurement": "antiamnesiogener Effekt", "setting": "[1]; 0,1 mg/kg i.p.", "result": "ähnlichen, jedoch weniger signifikanten (p<0,05) Effekt"}, {"measurement": "antiamnesiogener Effekt", "setting": "[1]; 10 mg/kg i.p.", "result": "ähnlichen, jedoch weniger signifikanten (p<0,05) Effekt"}, {"measurement": "antiamnesiogener Effekt", "setting": "[1]; 1,0 mg/kg i.p.", "result": "ähnlichen, jedoch weniger signifikanten (p<0,05) Effekt"}, {"measurement": "Gedächtnisverbesserung", "setting": "[2]; 0,1 mg/kg i.p.", "result": "keinen"}, {"measurement": "Gedächtnisverbesserung", "setting": "[2]; 10 mg/kg i.p.", "result": "signifikanten (p<0,05) Effekt"}, {"measurement": "Gedächtnisverbesserung", "setting": "[2]; 1,0 mg/kg i.p.", "result": "keinen"}, {"measurement": "Dosis, um die gedächtnisverbessernde Wirkung von 0,1 mg/kg i.p. von 1-[2-(Indol-3-yl)ethyl]-1,2,5,6,-tetrahydro-pyridin-3-carbonsauremethylester zu erzielen", "setting": "[2]", "result": 10, "unit": "mg/kg"}, {"measurement": "Dosis relativ zu 1-[2-(Indol-3-yl)ethyl]-1,2,5,6,-tetrahydro-pyridin-3-carbonsauremethylester für gleiche gedächtnisverbessernde Wirkung", "setting": "[2]", "result": "100 -fache Dosis"}]}, {"compound": "COC(=O)C1=CCN(CCc2c[nH]c3ccccc23)CC1", "note": "[Isomere C, 1-[2-(Indol-3-yl)ethyl]-1,2,5,6-tetrahydro-pyridin-4-carbonsäuremethylester]", "values": [{"measurement": "antiamnesiogener Effekt", "setting": "[1]; 0,1 mg/kg i.p.", "result": "keine signifikante antiamnesiogene Wirkung"}, {"measurement": "antiamnesiogener Effekt", "setting": "[1]; 10 mg/kg i.p.", "result": "keine signifikante antiamnesiogene Wirkung"}, {"measurement": "antiamnesiogener Effekt", "setting": "[1]; 1,0 mg/kg i.p.", "result": "keine signifikante antiamnesiogene Wirkung"}, {"measurement": "Gedächtnisverbesserung", "setting": "[2]; 0,1 mg/kg i.p.", "result": "keinen"}, {"measurement": "Gedächtnisverbesserung", "setting": "[2]; 10 mg/kg i.p.", "result": "signifikanten (p<0,05) Effekt"}, {"measurement": "Gedächtnisverbesserung", "setting": "[2]; 1,0 mg/kg i.p.", "result": "keinen"}, {"measurement": "Dosis, um die gedächtnisverbessernde Wirkung von 0,1 mg/kg i.p. von 1-[2-(Indol-3-yl)ethyl]-1,2,5,6,-tetrahydro-pyridin-3-carbonsauremethylester zu erzielen", "setting": "[2]", "result": 10, "unit": "mg/kg"}, {"measurement": "Dosis relativ zu 1-[2-(Indol-3-yl)ethyl]-1,2,5,6,-tetrahydro-pyridin-3-carbonsauremethylester für gleiche gedächtnisverbessernde Wirkung", "setting": "[2]", "result": "100 -fache Dosis"}]}, {"compound": "NC(=O)CN1CCCC1=O", "note": "[Piracetam]", "values": [{"measurement": "nootrop wirksame Dosis", "setting": "[1]; Maus, i.p., reference", "result": 100, "unit": "mg/kg"}]}]}
